Assay results from patent US8192962B2, “Processes for detecting toxic substances” (Daikin Industries, Ltd., priority 2001, dated 2012).

Test system: Genes belonging to other category
Test: DNA chip mRNA expression in yeast, genes belonging to other category (Table 9)
Type: cell-based, Saccharomyces cerevisiae S288C
Outline: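 S. cerevisiae S288C grown at 25° C in YPD were exposed in log phase for two hours to one toxic chemical at a growth-inhibiting, non-lethal concentration; untreated cells served as control. Poly(A) mRNA was reverse-transcribed with Cy3/Cy5-dUTP and hybridized to a whole-genome yeast DNA chip at 65° C for over 12 hours; values are fluorescence ratios versus untreated.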

What does the source list for `COc1cc(CNC(=O)CCCCC=CC(C)C)ccc1O` [(12), 8-methyl-N-vanillyl-6-nonenamide]?
The level of expressed mRNA in the presence of chemical substance/The level of expressed mRNA in the absence of chemical substance (yeast gene YAR010C): 1.0; The level of expressed mRNA in the presence of chemical substance/The level of expressed mRNA in the absence of chemical substance (yeast gene YBL005W-A): 1.6; The level of expressed mRNA in the presence of chemical substance/The level of expressed mRNA in the absence of chemical substance (yeast gene YBL041W): 1.6; The level of expressed mRNA in the presence of chemical substance/The level of expressed mRNA in the absence of chemical substance (yeast gene YBL043W): 0.9; The level of expressed mRNA in the presence of chemical substance/The level of expressed mRNA in the absence of chemical substance (yeast gene YBL078C): 3.1; The level of expressed mRNA in the presence of chemical substance/The level of expressed mRNA in the absence of chemical substance (yeast gene YBL102W): 0.9; The level of expressed mRNA in the presence of chemical substance/The level of expressed mRNA in the absence of chemical substance (yeast gene YBR212W): 0.9; The level of expressed mRNA in the presence of chemical substance/The level of expressed mRNA in the absence of chemical substance (yeast gene YBR214W): 1.2; The level of expressed mRNA in the presence of chemical substance/The level of expressed mRNA in the absence of chemical substance (yeast gene YCL020W): 1.5; The level of expressed mRNA in the presence of chemical substance/The level of expressed mRNA in the absence of chemical substance (yeast gene YCL027W): 0.8; The level of expressed mRNA in the presence of chemical substance/The level of expressed mRNA in the absence of chemical substance (yeast gene YCL067C): 1.0; The level of expressed mRNA in the presence of chemical substance/The level of expressed mRNA in the absence of chemical substance (yeast gene YCR004C): 0.8; The level of expressed mRNA in the presence of chemical substance/The level of expressed mRNA in the absence of chemical substance (yeast gene YCR067C): 0.9; The level of expressed mRNA in the presence of chemical substance/The level of expressed mRNA in the absence of chemical substance (yeast gene YCR071C): 1.1; The level of expressed mRNA in the presence of chemical substance/The level of expressed mRNA in the absence of chemical substance (yeast gene YCR088W): 1.3; The level of expressed mRNA in the presence of chemical substance/The level of expressed mRNA in the absence of chemical substance (yeast gene YCR096C): 1.0; The level of expressed mRNA in the presence of chemical substance/The level of expressed mRNA in the absence of chemical substance (yeast gene YDL008W): 1.2; The level of expressed mRNA in the presence of chemical substance/The level of expressed mRNA in the absence of chemical substance (yeast gene YDL119C): 0.9; The level of expressed mRNA in the presence of chemical substance/The level of expressed mRNA in the absence of chemical substance (yeast gene YDL197C): 0.8; The level of expressed mRNA in the presence of chemical substance/The level of expressed mRNA in the absence of chemical substance (yeast gene YDL238C): 0.9; The level of expressed mRNA in the presence of chemical substance/The level of expressed mRNA in the absence of chemical substance (yeast gene YDR055W): 1.4; The level of expressed mRNA in the presence of chemical substance/The level of expressed mRNA in the absence of chemical substance (yeast gene YDR084C): 0.7; The level of expressed mRNA in the presence of chemical substance/The level of expressed mRNA in the absence of chemical substance (yeast gene YDR085C): 1.6; The level of expressed mRNA in the presence of chemical substance/The level of expressed mRNA in the absence of chemical substance (yeast gene YDR104C): 1.1; The level of expressed mRNA in the presence of chemical substance/The level of expressed mRNA in the absence of chemical substance (yeast gene YDR115W): 0.9; The level of expressed mRNA in the presence of chemical substance/The level of expressed mRNA in the absence of chemical substance (yeast gene YDR169C): 0.9; The level of expressed mRNA in the presence of chemical substance/The level of expressed mRNA in the absence of chemical substance (yeast gene YDR188W): 0.9; The level of expressed mRNA in the presence of chemical substance/The level of expressed mRNA in the absence of chemical substance (yeast gene YDR212W): 0.8; The level of expressed mRNA in the presence of chemical substance/The level of expressed mRNA in the absence of chemical substance (yeast gene YDR259C): 1.0; The level of expressed mRNA in the presence of chemical substance/The level of expressed mRNA in the absence of chemical substance (yeast gene YDR315C): 0.6; The level of expressed mRNA in the presence of chemical substance/The level of expressed mRNA in the absence of chemical substance (yeast gene YDR329C): 0.8; The level of expressed mRNA in the presence of chemical substance/The level of expressed mRNA in the absence of chemical substance (yeast gene YDR358W): 1.1; The level of expressed mRNA in the presence of chemical substance/The level of expressed mRNA in the absence of chemical substance (yeast gene YDR378C): 0.9; The level of expressed mRNA in the presence of chemical substance/The level of expressed mRNA in the absence of chemical substance (yeast gene YDR388W): 0.8; The level of expressed mRNA in the presence of chemical substance/The level of expressed mRNA in the absence of chemical substance (yeast gene YDR403W): 1.0; The level of expressed mRNA in the presence of chemical substance/The level of expressed mRNA in the absence of chemical substance (yeast gene YDR432W): 0.7; The level of expressed mRNA in the presence of chemical substance/The level of expressed mRNA in the absence of chemical substance (yeast gene YDR481C): 0.9; The level of expressed mRNA in the presence of chemical substance/The level of expressed mRNA in the absence of chemical substance (yeast gene YDR510W): 1.4; The level of expressed mRNA in the presence of chemical substance/The level of expressed mRNA in the absence of chemical substance (yeast gene YDR515W): 0.8; The level of expressed mRNA in the presence of chemical substance/The level of expressed mRNA in the absence of chemical substance (yeast gene YEL005C): 0.8; The level of expressed mRNA in the presence of chemical substance/The level of expressed mRNA in the absence of chemical substance (yeast gene YEL042W): 1.0; The level of expressed mRNA in the presence of chemical substance/The level of expressed mRNA in the absence of chemical substance (yeast gene YEL066W): 0.8; The level of expressed mRNA in the presence of chemical substance/The level of expressed mRNA in the absence of chemical substance (yeast gene YER021W): 1.0; The level of expressed mRNA in the presence of chemical substance/The level of expressed mRNA in the absence of chemical substance (yeast gene YER039C): 0.9; The level of expressed mRNA in the presence of chemical substance/The level of expressed mRNA in the absence of chemical substance (yeast gene YER048C): 0.8; The level of expressed mRNA in the presence of chemical substance/The level of expressed mRNA in the absence of chemical substance (yeast gene YER100W): 0.8; The level of expressed mRNA in the presence of chemical substance/The level of expressed mRNA in the absence of chemical substance (yeast gene YER107C): 0.7; The level of expressed mRNA in the presence of chemical substance/The level of expressed mRNA in the absence of chemical substance (yeast gene YER130C): 1.0; The level of expressed mRNA in the presence of chemical substance/The level of expressed mRNA in the absence of chemical substance (yeast gene YFL022C): 0.6; The level of expressed mRNA in the presence of chemical substance/The level of expressed mRNA in the absence of chemical substance (yeast gene YFL028C): 1.1; The level of expressed mRNA in the presence of chemical substance/The level of expressed mRNA in the absence of chemical substance (yeast gene YFL043C): 0.9; The level of expressed mRNA in the presence of chemical substance/The level of expressed mRNA in the absence of chemical substance (yeast gene YGL011C): 1.0; The level of expressed mRNA in the presence of chemical substance/The level of expressed mRNA in the absence of chemical substance (yeast gene YGL094C): 0.8; The level of expressed mRNA in the presence of chemical substance/The level of expressed mRNA in the absence of chemical substance (yeast gene YGL150C): 0.8; The level of expressed mRNA in the presence of chemical substance/The level of expressed mRNA in the absence of chemical substance (yeast gene YGL158W): 1.3; The level of expressed mRNA in the presence of chemical substance/The level of expressed mRNA in the absence of chemical substance (yeast gene YGL207W): 0.7; The level of expressed mRNA in the presence of chemical substance/The level of expressed mRNA in the absence of chemical substance (yeast gene YGL229C): 1.1; The level of expressed mRNA in the presence of chemical substance/The level of expressed mRNA in the absence of chemical substance (yeast gene YGR023W): 0.9; The level of expressed mRNA in the presence of chemical substance/The level of expressed mRNA in the absence of chemical substance (yeast gene YGR036C): 1.0; The level of expressed mRNA in the presence of chemical substance/The level of expressed mRNA in the absence of chemical substance (yeast gene YGR136W): 1.2; The level of expressed mRNA in the presence of chemical substance/The level of expressed mRNA in the absence of chemical substance (yeast gene YGR189C): 1.3; The level of expressed mRNA in the presence of chemical substance/The level of expressed mRNA in the absence of chemical substance (yeast gene YGR201C): 1.9; The level of expressed mRNA in the presence of chemical substance/The level of expressed mRNA in the absence of chemical substance (yeast gene YGR213C): 10.6; The level of expressed mRNA in the presence of chemical substance/The level of expressed mRNA in the absence of chemical substance (yeast gene YGR257C): 0.9; The level of expressed mRNA in the presence of chemical substance/The level of expressed mRNA in the absence of chemical substance (yeast gene YGR270W): 0.8; The level of expressed mRNA in the presence of chemical substance/The level of expressed mRNA in the absence of chemical substance (yeast gene YGR279C): 0.7; The level of expressed mRNA in the presence of chemical substance/The level of expressed mRNA in the absence of chemical substance (yeast gene YHR004C): 0.9; The level of expressed mRNA in the presence of chemical substance/The level of expressed mRNA in the absence of chemical substance (yeast gene YHR027C): 1.0; The level of expressed mRNA in the presence of chemical substance/The level of expressed mRNA in the absence of chemical substance (yeast gene YHR071W): 0.8; The level of expressed mRNA in the presence of chemical substance/The level of expressed mRNA in the absence of chemical substance (yeast gene YHR139C): 1.6; The level of expressed mRNA in the presence of chemical substance/The level of expressed mRNA in the absence of chemical substance (yeast gene YHR142W): 1.3; The level of expressed mRNA in the presence of chemical substance/The level of expressed mRNA in the absence of chemical substance (yeast gene YHR160C): 0.8; The level of expressed mRNA in the presence of chemical substance/The level of expressed mRNA in the absence of chemical substance (yeast gene YHR161C): 1.0; The level of expressed mRNA in the presence of chemical substance/The level of expressed mRNA in the absence of chemical substance (yeast gene YHR171W): 0.8; The level of expressed mRNA in the presence of chemical substance/The level of expressed mRNA in the absence of chemical substance (yeast gene YHR195W): 0.9; The level of expressed mRNA in the presence of chemical substance/The level of expressed mRNA in the absence of chemical substance (yeast gene YIL034C): 1.0; The level of expressed mRNA in the presence of chemical substance/The level of expressed mRNA in the absence of chemical substance (yeast gene YIL062C): 0.8; The level of expressed mRNA in the presence of chemical substance/The level of expressed mRNA in the absence of chemical substance (yeast gene YIL075C): 0.8; The level of expressed mRNA in the presence of chemical substance/The level of expressed mRNA in the absence of chemical substance (yeast gene YIL123W): 0.8; The level of expressed mRNA in the presence of chemical substance/The level of expressed mRNA in the absence of chemical substance (yeast gene YIL140W): 1.0; The level of expressed mRNA in the presence of chemical substance/The level of expressed mRNA in the absence of chemical substance (yeast gene YJL073W): 1.0; The level of expressed mRNA in the presence of chemical substance/The level of expressed mRNA in the absence of chemical substance (yeast gene YJL089W): 1.2; The level of expressed mRNA in the presence of chemical substance/The level of expressed mRNA in the absence of chemical substance (yeast gene YJL113W): 0.7
